pEC50: −log10 of the molar value. Read-outs that look alike come from different tables or passages of the source.
Tests used:
[1] = molecular target: T1, WEE1 (Homo sapiens, UniProt P30291+Q96SW2); test: WEE1-ePL degradation assay (LentiX-WEE1-ePL-GSPT1-ND cells, InCELL Hunter luminescence, 4 h); assay type: cell-based; conditions: 293T-LentiX WEE1-ePL cells; for DC50: read-out: 293T-LentiX WEE1-ePL Degradation 4 hr (EC50)
T1 construct: C-terminal ePL-tagged (DiscoverX, Fremont, CA) full-length WEE1 expression construct; expressed in transfected cells; host or cells: LentiX-HEK293T (Invitrogen), lentiviral transduction; co-expressing GSPT1-GN (G576N, lacking the first 158 amino acids)
Outline: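 Degradation EC50 was fitted by a four-parameter logistic model, with the upper limit taken from DMSO wells. Luminescence was read with InCELL Hunter reagent after 30 min at room temperature, following a 4 h, 37° C exposure of 2500 cells/well. Cells were LentiX-HEK293T carrying ePL-tagged full-length WEE1, dosed in 10 points (3-fold) from 1 or 10 uM.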

[2] = tested on: MKN45 cells; test: MKN45 cell proliferation assay (Cell-Titer-Glo, 120 h); assay type: cell-based; conditions: for pEC50: Homo sapiens, MKN-45, 120 h, Cell-Titer-Glo, read-out: MKN45 Cell Prolif. 120 hr (EC50); for MKN45 Cell Prolif. 120 hr (Ymin-Obs): minimal percent of DMSO control observed in the concentrations tested
Outline: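 Cells seeded at 400/well onto pre-printed 10-point half-log dilutions (top 1 or 10 uM, 0.1% DMSO final), in triplicate, and grown 120 h at 37 C. Viability by Cell-Titer-Glo luminescence, blank-subtracted and normalised to DMSO; EC50 from four-parameter logistic fit, with observed minimal % of control recorded as Ymin-obs.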

[3] = lower limit of the fit (Ymin=0 luciferase inhibitor, Ymax DMSO control)
[4] = lower limit of the fit (0 = luciferase inhibitor, Ymax = DMSO control)

Row | SMILES | 293T-LentiX WEE1-ePL Degradation 4 hr (Ymin) [1, 3] | DC50 [1] [nM] | pEC50 [2] | 293T-LentiX WEE1-ePL Degradation 4 hr (Ymin) [1, 4] | pEC50 ([2]; growth inhibition) | MKN45 Cell Prolif. 120 hr (Ymin-Obs) [2]
1 | C[C@@H]1CN(Cc2ccc3nc([C@H]4CCOC(C)(C)C4)ccc3c2)C[C@H]1Oc1ccc2c(c1)CN([C@H]1CCC(=O)NC1=O)C2=O [(3S)-3-(5-{[(3S,4R)-1-({2-[(4S)-2,2-dimethyloxan-4-yl]quinolin-6-yl}methyl)-4-methylpyrrolidin-3-yl]oxy}-1-oxo-2,3-dihydro-1H-isoindol-2-yl)piperidine-2,6-dione] | 24.63 | 3.51 | 8.84 |  |  | 9.434
2 | C[C@@H]1CN(Cc2cc(F)c3nc([C@H]4CCOC4)ccc3c2)C[C@H]1Oc1ccc2c(c1)CN([C@H]1CCC(=O)NC1=O)C2=O [(3S)-3-(5-{[(3S,4R)-1-({8-fluoro-2-[(3R)-oxolan-3-yl]quinolin-6-yl}methyl)-4-methylpyrrolidin-3-yl]oxy}-1-oxo-2,3-dihydro-1H-isoindol-2-yl)piperidine-2,6-dione] | 26.61 | 0.985 | 9.02 |  |  | 7.865
3 | C[C@@H]1CN(Cc2cc(F)c3nc([C@@H]4CCOC4)ccc3c2)C[C@H]1Oc1ccc2c(c1)CN([C@H]1CCC(=O)NC1=O)C2=O [(3S)-3-(5-{[(3S,4R)-1-({8-fluoro-2-[(3S)-oxolan-3-yl]quinolin-6-yl}methyl)-4-methylpyrrolidin-3-yl]oxy}-1-oxo-2,3-dihydro-1H-isoindol-2-yl)piperidine-2,6-dione] | 26.17 | 1.41 | 8.95 |  |  | 7.979
4 | C[C@@H]1CN(Cc2cc(F)c3nc(C4CCOCC4)ccc3c2)C[C@H]1Oc1ccc2c(c1)CN([C@H]1CCC(=O)NC1=O)C2=O [(3S)-3-(5-{[(3S,4R)-1-{[8-fluoro-2-(oxan-4-yl)quinolin-6-yl]methyl}-4-methylpyrrolidin-3-yl]oxy}-1-oxo-2,3-dihydro-1H-isoindol-2-yl)piperidine-2,6-dione] | 33.52 | 1.05 | 8.85 |  |  | 9.05
5 | COC[C@@H]1CN(Cc2ccc3nc([C@@H]4CCOC(C)(C)C4)ccc3c2)C[C@H]1Oc1ccc2c(c1)CN([C@H]1CCC(=O)NC1=O)C2=O [(3S)-3-(5-{[(3S,4S)-1-({2-[(4R)-2,2-dimethyloxan-4-yl]quinolin-6-yl}methyl)-4-(methoxymethyl)pyrrolidin-3-yl]oxy}-1-oxo-2,3-dihydro-1H-isoindol-2-yl)piperidine-2,6-dione] | 25.48 | 0.726 | 9.61 |  |  | 7.692
6 | COC[C@@H]1CN(Cc2cc(F)c3nc([C@H]4CCOC(C)(C)C4)ccc3c2)C[C@H]1Oc1ccc2c(c1)CN([C@H]1CCC(=O)NC1=O)C2=O [(3S)-3-(5-{[(3S,4S)-1-({2-[(4S)-2,2-dimethyloxan-4-yl]-8-fluoroquinolin-6-yl}methyl)-4-(methoxymethyl)pyrrolidin-3-yl]oxy}-1-oxo-2,3-dihydro-1H-isoindol-2-yl)piperidine-2,6-dione] | 25.19 | 1.2 | 9.20 |  |  | 8.947
7 | COC[C@@H]1CN(Cc2ccc3nc([C@H]4CCOC(C)(C)C4)ccc3c2)C[C@H]1Oc1ccc2c(c1)CN([C@H]1CCC(=O)NC1=O)C2=O [(3S)-3-(5-{[(3S,4S)-1-({2-[(4S)-2,2-dimethyloxan-4-yl]quinolin-6-yl}methyl)-4-(methoxymethyl)pyrrolidin-3-yl]oxy}-1-oxo-2,3-dihydro-1H-isoindol-2-yl)piperidine-2,6-dione] | 25.45 | 1.25 | 9.25 |  |  | 8.285
8 | COC[C@@H]1CN(Cc2ccc3nc(C4CCN(C(C)=O)CC4)ncc3c2)C[C@H]1Oc1ccc2c(c1)CN([C@H]1CCC(=O)NC1=O)C2=O [(3S)-3-(5-{[(3S,4S)-1-{[2-(1-acetylpiperidin-4-yl)quinazolin-6-yl]methyl}-4-(methoxymethyl)pyrrolidin-3-yl]oxy}-1-oxo-2,3-dihydro-1H-isoindol-2-yl)piperidine-2,6-dione] | 26.93 | 11.9 | 8.45 |  |  | 9.28

More lines, main results first:

Row | 293T-LentiX WEE1-ePL Degradation 4 hr (Ymin) [1, 3] | DC50 [1] [nM] | pEC50 [2] | 293T-LentiX WEE1-ePL Degradation 4 hr (Ymin) [1, 4] | pEC50 ([2]; growth inhibition) | SMILES | MKN45 Cell Prolif. 120 hr (Ymin-Obs) [2]
9 | 27.27 | 1.41 | 8.95 |  |  | COC[C@@H]1CN(Cc2ccc3nc(N4CCN(C(C)=O)CC4)ccc3c2)C[C@H]1Oc1ccc2c(c1)CN([C@H]1CCC(=O)NC1=O)C2=O [(3S)-3-(5-{[(3S,4S)-1-{[2-(4-acetylpiperazin-1-yl)quinolin-6-yl]methyl}-4-(methoxymethyl)pyrrolidin-3-yl]oxy}-1-oxo-2,3-dihydro-1H-isoindol-2-yl)piperidine-2,6-dione] | 8.785
10 | 25.61 | 5.4 | 8.78 |  |  | COC[C@@H]1CN(Cc2ccc3nc(N4CCOCC4)ncc3c2)C[C@H]1Oc1ccc2c(c1)CN([C@H]1CCC(=O)NC1=O)C2=O [(3S)-3-(5-{[(3S,4S)-4-(methoxymethyl)-1-{[2-(morpholin-4-yl)quinazolin-6-yl]methyl}pyrrolidin-3-yl]oxy}-1-oxo-2,3-dihydro-1H-isoindol-2-yl)piperidine-2,6-dione] | 8.574
11 | 23.11 | 17.6 | 8.31 |  |  | COC[C@@H]1CN(Cc2ccc3nc(C4CCOCC4)ncc3c2)C[C@H]1Oc1ccc2c(c1)CN([C@H]1CCC(=O)NC1=O)C2=O [(3S)-3-(5-{[(3S,4S)-4-(methoxymethyl)-1-{[2-(oxan-4-yl)quinazolin-6-yl]methyl}pyrrolidin-3-yl]oxy}-1-oxo-2,3-dihydro-1H-isoindol-2-yl)piperidine-2,6-dione] | 8.813
12 | 40.43 | 4.84 | 7.51 |  |  | C[C@@H]1c2cc(O[C@H]3CCN(Cc4ccc5nc(N6CCOCC6)ncc5c4)C3)ccc2C(=O)N1[C@H]1CCC(=O)NC1=O [(3S)-3-[(3R)-3-methyl-5-{[(3S)-1-{[2-(morpholin-4-yl)quinazolin-6-yl]methyl}pyrrolidin-3-yl]oxy}-1-oxo-2,3-dihydro-1H-isoindol-2-yl]piperidine-2,6-dione] | 36.11
13 | 42.32 | 2.67 | 7.75 |  |  | C[C@@H]1c2cc(O[C@H]3CCN(Cc4ccc5nc(C6CCOCC6)ccc5c4)C3)ccc2C(=O)N1[C@H]1CCC(=O)NC1=O [(3S)-3-[(3R)-3-methyl-5-{[(3S)-1-{[2-(oxan-4-yl)quinolin-6-yl]methyl}pyrrolidin-3-yl]oxy}-1-oxo-2,3-dihydro-1H-isoindol-2-yl]piperidine-2,6-dione] | 20.63
14 | 49.25 | 212 | 6.43 |  |  | C[C@H]1c2cc(O[C@H]3CCN(Cc4ccc5nc(C6CCOCC6)ccc5c4)C3)ccc2C(=O)N1[C@H]1CCC(=O)NC1=O [(3S)-3-[(3S)-3-methyl-5-{[(3S)-1-{[2-(oxan-4-yl)quinolin-6-yl]methyl}pyrrolidin-3-yl]oxy}-1-oxo-2,3-dihydro-1H-isoindol-2-yl]piperidine-2,6-dione] | 86.82
15 |  | 5.04 |  | 32.5 | 8.48 | CN(C(=O)C1CCOCC1)c1ccc2cc(CN3CC[C@H](Oc4ccc5c(c4)CN(C4CCC(=O)NC4=O)C5=O)C3)ccc2n1 (stereo partly drawn) [N-(6-{[(3S)-3-{[2-(2,6-dioxopiperidin-3-yl)-1-oxo-2,3-dihydro-1H-isoindol-5-yl]oxy}pyrrolidin-1-yl]methyl}quinolin-2-yl)-N-methyloxane-4-carboxamide] | 6.6
16 |  | 1.78 |  | 29 | 8.69 | O=C1CCC(N2Cc3cc(O[C@H]4CCN(Cc5ccc6nc(NC(=O)C7CCOCC7)ccc6c5)C4)ccc3C2=O)C(=O)N1 (stereo partly drawn) [N-(6-{[(3S)-3-{[2-(2,6-dioxopiperidin-3-yl)-1-oxo-2,3-dihydro-1H-isoindol-5-yl]oxy}pyrrolidin-1-yl]methyl}quinolin-2-yl)oxane-4-carboxamide] | 5.73
17 |  | 2.09 |  | 28.27 | 8.57 | CO[C@H]1C[C@@H](c2ccc3cc(CN4CC[C@H](Oc5ccc6c(c5)CN(C5CCC(=O)NC5=O)C6=O)C4)ccc3n2)C1 (stereo partly drawn) [drawing 577, 3-(1-oxo-5-{[(3S)-1-({2-[(1s,3s)-3-methoxycyclobutyl]quinolin-6-yl}methyl)pyrrolidin-3-yl]oxy}-2,3-dihydro-1H-isoindol-2-yl)piperidine-2,6-dione] | 7.76
